Test results from paper PMC5625161 (Pharmacology Research & Perspectives, 2017).
Like-named read-outs stand apart in the source and are kept apart here. Marks after values point to notes of the source that are not given here.

Legend:
[1] = Perpetrator drug plasma Cmax in clinical interaction studies with metformin; type: in vivo, human; conditions: f u × C max
[2] = biological target: T1, multidrug and toxin extrusion protein (MATE) 1 (SLC47A1) (Homo sapiens, UniProt Q96FL8); design: method as in Kusuhara et al. 2011; Ito et al. 2012; Müller et al. 2015; conditions: ref Kusuhara et al. 2011; Ito et al. 2012; Müller et al. 2015; cited from earlier work
T1 sequence (Q96FL8 1-570): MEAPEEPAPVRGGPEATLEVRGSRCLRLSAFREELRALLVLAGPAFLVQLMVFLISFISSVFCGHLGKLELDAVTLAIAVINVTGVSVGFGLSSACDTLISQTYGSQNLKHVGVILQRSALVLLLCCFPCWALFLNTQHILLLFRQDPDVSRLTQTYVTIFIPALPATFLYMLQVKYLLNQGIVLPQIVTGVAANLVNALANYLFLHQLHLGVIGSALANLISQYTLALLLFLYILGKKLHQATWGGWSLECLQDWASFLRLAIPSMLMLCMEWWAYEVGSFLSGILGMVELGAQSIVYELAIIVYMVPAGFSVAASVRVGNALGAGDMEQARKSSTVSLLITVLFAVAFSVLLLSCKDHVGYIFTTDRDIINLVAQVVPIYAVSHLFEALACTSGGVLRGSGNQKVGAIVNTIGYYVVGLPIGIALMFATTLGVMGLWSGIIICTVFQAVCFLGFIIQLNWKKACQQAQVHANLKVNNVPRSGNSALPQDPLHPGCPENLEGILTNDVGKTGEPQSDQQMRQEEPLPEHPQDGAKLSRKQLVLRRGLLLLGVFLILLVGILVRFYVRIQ

[3] = read-out: [C max] mean steady-state total plasma concentration, cited from earlier work
[4] = cited from earlier work; for increase in the plasma exposure (AUC) of metformin in clinical DDIs: ref Somogyi et al. 1987, Wang et al. 2008, Grün et al. 2013, Müller et al. 2015, Kusuhara et al. 2011
[5] = tested on: Caco‐2 cell monolayers; test: Metformin apparent permeability across polarised Caco-2 cell monolayers with and without inhibitors; type: in vitro ADME; conditions: therapeutic intestinal concentrations of inhibitor
Protocol: (§1) Caco‐2 cells between passage numbers 50–60 were used for experiments. Cells were seeded in cell culture medium (consisting of DMEM supplemented with 10% (w/v) fetal bovine serum, 2 mmol/L L‐glutamine, 1% (v/v) nonessential amino acids, 50 U/mL penicillin and 50 μg/mL streptomycin) onto Millicell‐96 multiwell insert plates at 1 × 10^5 cells/cm^2 and cultured at 37°C in an atmosphere of 5% CO2 with a relative humidity of 95 %. Media was changed every two or three days and plates were used for transport studies on day 20 postseeding. Cell monolayers were washed twice with prewarmed (37°C) transport buffer (HBSS containing 25 mmol/L HEPES and 4.45 mmol/L glucose, pH 7.4) for basolateral compartments and prewarmed MES‐transport buffer (HBSS containing 10 mmol/L MES and 4.45 mmol/L glucose, pH 6.5) for apical compartments. […] Transport buffer or MES‐transport buffer containing DMSO or test inhibitor was added to the corresponding receiver compartments. Donor and receiver solutions contained a final DMSO concentration of ≤1 % (v/v). […] The amount of lucifer yellow appearing in the receiver compartments was quantified on a fluorescence plate reader and used to calculate permeation across the cell monolayer.

[6] = biological target: T2, human organic cation transporter (OCT) 1 (SLC22A1) (Homo sapiens, UniProt O15245); test: cell-based
T2 sequence (O15245 1-554): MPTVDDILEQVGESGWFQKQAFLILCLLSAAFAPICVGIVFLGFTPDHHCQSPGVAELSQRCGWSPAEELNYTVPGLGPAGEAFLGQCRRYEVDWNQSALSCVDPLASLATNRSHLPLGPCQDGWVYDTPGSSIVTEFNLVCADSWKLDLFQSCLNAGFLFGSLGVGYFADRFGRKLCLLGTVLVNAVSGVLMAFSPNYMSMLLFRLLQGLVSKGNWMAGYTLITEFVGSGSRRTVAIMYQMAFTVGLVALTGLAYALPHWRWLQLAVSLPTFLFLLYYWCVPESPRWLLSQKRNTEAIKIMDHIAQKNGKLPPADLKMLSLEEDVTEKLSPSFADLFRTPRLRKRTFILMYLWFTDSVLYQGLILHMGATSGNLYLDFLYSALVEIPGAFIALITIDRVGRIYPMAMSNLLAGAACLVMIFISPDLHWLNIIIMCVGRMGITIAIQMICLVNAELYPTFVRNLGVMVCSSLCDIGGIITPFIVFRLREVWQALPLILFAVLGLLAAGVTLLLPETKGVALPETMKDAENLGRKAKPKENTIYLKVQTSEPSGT

[7] = cited from earlier work
[8] = biological target: T1, multidrug and toxin extrusion protein (MATE) 1 (SLC47A1); test: In vitro SLC transporter inhibition: MATE1-mediated [14C]-metformin uptake; type: cell-based
[9] = Metformin human mass balance and renal clearance; type: in vivo
[10] = tested on: Mate1; design: method as in Tsuda et al. 2009a; conditions: intravenous administration; ref Tsuda et al. 2009a; cited from earlier work
[11] = tested on: Oct1/2; design: method as in Higgins et al. 2012; conditions: oral administration; ref Higgins et al. 2012; cited from earlier work
[12] = oral metformin human mass balance, average; ref Pentikäinen et al. 1979; Tucker et al. 1981; Kusuhara et al. 2011; cited from earlier work
[13] = Metformin apparent permeability across polarised Caco-2 cell monolayers with and without inhibitors; type: in vitro ADME; conditions: human, Caco-2, pH 6.5
Protocol: as §1

[14] = biological target: T1, multidrug and toxin extrusion protein (MATE) 1 (SLC47A1); conditions: MATE1-mediated metformin uptake, 1.5 min, 37°C; ±SE from fitting
[15] = biological target: MATE2‐K (SLC47A2) (Homo sapiens, UniProt Q86VL8); conditions: MATE2-K-mediated metformin uptake, 1.5 min, 37°C; ±SE from fitting
MATE2‐K (SLC47A2), sequence (Q86VL8 1-566 isoform Q86VL8-3): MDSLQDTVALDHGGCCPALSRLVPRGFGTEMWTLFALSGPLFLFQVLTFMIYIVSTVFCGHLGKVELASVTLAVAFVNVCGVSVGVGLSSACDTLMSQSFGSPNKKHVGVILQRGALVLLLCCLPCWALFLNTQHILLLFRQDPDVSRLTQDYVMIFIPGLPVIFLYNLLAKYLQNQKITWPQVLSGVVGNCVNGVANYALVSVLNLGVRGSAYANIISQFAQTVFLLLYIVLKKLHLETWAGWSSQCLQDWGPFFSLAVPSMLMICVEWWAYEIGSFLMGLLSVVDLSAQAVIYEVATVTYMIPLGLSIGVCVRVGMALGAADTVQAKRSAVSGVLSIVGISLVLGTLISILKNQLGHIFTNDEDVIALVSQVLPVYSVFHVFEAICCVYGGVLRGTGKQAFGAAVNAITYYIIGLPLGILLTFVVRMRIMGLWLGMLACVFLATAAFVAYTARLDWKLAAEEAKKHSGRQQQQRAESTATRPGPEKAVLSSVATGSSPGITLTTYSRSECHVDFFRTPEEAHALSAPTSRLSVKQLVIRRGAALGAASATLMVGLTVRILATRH

[16] = first-listed (or only) clinical study

CN/C(=N/CCSCc1nc[nH]c1C)NC#N [Cimetidine, cimetidine]
[C max free] [1, 16]: 7.68 µM | [C max free] ([1]; second-listed clinical study): 4.08 µM | mode of inhibition of MATE1 [2]: competitive inhibitors | Cmax ([3]; cimetidine 400 mg, first value, study with metformin 250 mg, ref Somogyi et al. (1987)): 9.6 µM | Cmax ([3]; cimetidine 400 mg, second value, study with metformin 500 mg, ref Wang et al. (2008)): 5.1 µM | increase in the plasma exposure (AUC) of metformin in clinical DDIs [4]: < 2 fold | effect on enhancing metformin absorptive permeability across Caco‐2 cells [5]: absence of an effect | IC50 [6]: 275 ± 32.2 µM | f u (fraction unbound) ([7]; ref Somogyi and Gugler (1983)): 0.80 ^a

CCc1nc(N)nc(N)c1-c1ccc(Cl)cc1 [Pyrimethamine, pyrimethamine]
[C max free] [1, 16]: 0.298 µM | mode of inhibition of MATE1 [2]: competitive inhibitors | Cmax ([3]; pyrimethamine 50 mg, study with metformin 250 mg, ref Kusuhara et al. (2011)): 2.29 µM | increase in the plasma exposure (AUC) of metformin in clinical DDIs [4]: < 2 fold | MATE1 K i ([8]; equates to IC50 (probe ≪≪ Km, assuming competitive inhibition)): 0.131 µM | IC50 (≅K i) values MATE1 ([8]; probe [14C]-metformin 100 μmol/L, 1.5 min, mean ± SD of three experiments): 0.131 ± 0.0401 µM | effect on enhancing metformin absorptive permeability across Caco‐2 cells [5]: absence of an effect | IC50 [6]: 4.46 ± 0.77 µM

COc1cc(Cc2cnc(N)nc2N)cc(OC)c1OC [Trimethoprim, trimethoprim]
[C max free] [1, 16]: 7.84 µM | [C max free] ([1]; second-listed clinical study): 4.26 µM | increase in the plasma exposure (AUC) of metformin in clinical DDIs [4]: < 2 fold | effect on enhancing metformin absorptive permeability across Caco‐2 cells [5]: absence of an effect | f u (fraction unbound) ([7]; ref Bactrim and Daraprim drug labels (Drugs@FDA database)): 0.56

CN(C)C(=N)N=C(N)N [metformin, Metformin]
fraction excreted value, ƒe, renal active transport ([9]; derived from intravenous administration of metformin): 0.66 | fraction excreted value, ƒe, renal active transport ([9]; derived from oral administration of metformin): 0.39 | increase in metformin AUC in Mate1(−/−) null mice compared with wildtype [10]: 4.2 fold | increase in metformin AUC in Oct1/2(−/−) mice [11]: 2.9 fold | share of the dose eliminated in urine [12]: 52% | Papp A→B at 90 min ([13]; read-out: Papp A‐B (apical to basolateral)): ~5 nm/s | Papp B→A at 90 min ([13]; read-out: Papp B‐A (basolateral to apical)): ~5 nm/s | K m [14]: 4.565 ± 0.903 mM | V max [14]: 141000 ± 12283 pmol/min/mg protein | K m [15]: 2.986 ± 0.817 mM | V max [15]: 32147 ± 3401 pmol/min/mg protein

CNC(=C[N+](=O)[O-])NCCSCc1csc(CN(C)C)n1 [nizatidine]
effect on metformin AUC in clinical interaction study ([4]; ref Morrissey et al. 2016): did not increase metformin AUC
